{"source": "paper PMC9323733", "about": "“Efficacy of Vafidemstat in Experimental Autoimmune Encephalomyelitis Highlights the KDM1A/RCOR1/HDAC Epigenetic Axis in Multiple Sclerosis” (Pharmaceutics, 2022)", "system": "spinal cord and brain of EAE mice", "experiment": "qRT-PCR validation of microarray biomarkers, spinal cord and brain of EAE mice", "format": "in vivo, mouse", "experimental": "We evaluated differences in gene expression induced by the treatment using real-time PCR and by microarray hybridization analysis. First, total RNA was isolated from brain and spinal cord segments from EAE mice using Qiazol™ and the RNeasy MiniKit™ extraction kit (Qiagen). Evaluation of RNA quality was performed with the Agilent 2100 bioanalyzer and NanoDrop™ ND-1000 (Thermo Scientific, Dartford, Kent, UK). After DNAse I treatment, RNA (1 µg/sample) was reverse transcribed using RevertAid First strand cDNA Synthesis kit (Fermentas) and random hexamer primers. For evaluating the expression of the inflammatory markers TNFα, IL-1β, IP10, IL-4, and CCL5, real time PCR was performed by using iQ SYBR Green Supermix (Bio-Rad, Feldkirchen, Germany) according to manufacturer’s instructions in a BIORAD CFX96 thermal cycler. Primer sequences and PCR conditions are indicated in Supplementary Materials Table S3. […]\nFor the gene expression studies, data from microarray assays were normalized by modified nonlinear Q-splines normalization method and Log2(Sample/Vehicle) values calculated without background correction (which permits robust selection of differentially expressed genes yet may lead to sub-estimation of the magnitude of change for genes expressed near the detection limit). Differential expression was assessed with the proprietary Polyphemus software using robust statistics on the average technical replicates (3 replicates/gene oligo datapoint) after removing eventual outlier points (caused by dust or array imperfections). […] The p values were calculated after outlier elimination based on the absolute value of the regularized t-statistics, which uses a Bayesian framework to derive the algorithm, using internal replicated controls to assess the minimum technical variability of the process. Correlation between gene expression changes induced by different treatments was analysed by calculating the Pearson correlation coefficient r using the Log2(Treatment/Veh) values for all genes expressed above background level (n). […]", "data": [{"smiles": "Nc1nnc(CN[C@@H]2C[C@H]2c2ccc(OCc3ccccc3)cc2)o1", "note": "[ORY-2001]", "values": [{"measurement": "Ttr upregulation in spinal cord, check by qRT-PCR", "setting": "increased pooled value came from a single outlier sample", "result": "discarded as a biomarker"}, {"measurement": "expression of Saa3, Aif1 and Gbp2 (qRT-PCR)", "setting": "spinal cord and brain, effector phase", "result": "downregulated the inflammatory biomarkers Saa3, Aif1 and Gbp2"}, {"measurement": "expression of Ccl5, Ip10 and Tnf-alpha (qRT-PCR)", "setting": "spinal cord and brain, sub-chronic period", "result": "downregulated"}]}]}
